What was measured:
[1] = molecular target: T1, Multidrug resistance-associated protein 1 (Homo sapiens, UniProt P33527); assay: Inhibitory activity against MRP1 in HeLa-T5 cells; format: functional, cell-based
[2] = molecular target: T1, Multidrug resistance-associated protein 1; assay: Inhibitory activity against MRP1-mediated LTC4 uptake into membrane vesicles from HeLa-T5 cells expressing MRP1; format: functional, cell-based

T1 sequence (P33527 whole entry): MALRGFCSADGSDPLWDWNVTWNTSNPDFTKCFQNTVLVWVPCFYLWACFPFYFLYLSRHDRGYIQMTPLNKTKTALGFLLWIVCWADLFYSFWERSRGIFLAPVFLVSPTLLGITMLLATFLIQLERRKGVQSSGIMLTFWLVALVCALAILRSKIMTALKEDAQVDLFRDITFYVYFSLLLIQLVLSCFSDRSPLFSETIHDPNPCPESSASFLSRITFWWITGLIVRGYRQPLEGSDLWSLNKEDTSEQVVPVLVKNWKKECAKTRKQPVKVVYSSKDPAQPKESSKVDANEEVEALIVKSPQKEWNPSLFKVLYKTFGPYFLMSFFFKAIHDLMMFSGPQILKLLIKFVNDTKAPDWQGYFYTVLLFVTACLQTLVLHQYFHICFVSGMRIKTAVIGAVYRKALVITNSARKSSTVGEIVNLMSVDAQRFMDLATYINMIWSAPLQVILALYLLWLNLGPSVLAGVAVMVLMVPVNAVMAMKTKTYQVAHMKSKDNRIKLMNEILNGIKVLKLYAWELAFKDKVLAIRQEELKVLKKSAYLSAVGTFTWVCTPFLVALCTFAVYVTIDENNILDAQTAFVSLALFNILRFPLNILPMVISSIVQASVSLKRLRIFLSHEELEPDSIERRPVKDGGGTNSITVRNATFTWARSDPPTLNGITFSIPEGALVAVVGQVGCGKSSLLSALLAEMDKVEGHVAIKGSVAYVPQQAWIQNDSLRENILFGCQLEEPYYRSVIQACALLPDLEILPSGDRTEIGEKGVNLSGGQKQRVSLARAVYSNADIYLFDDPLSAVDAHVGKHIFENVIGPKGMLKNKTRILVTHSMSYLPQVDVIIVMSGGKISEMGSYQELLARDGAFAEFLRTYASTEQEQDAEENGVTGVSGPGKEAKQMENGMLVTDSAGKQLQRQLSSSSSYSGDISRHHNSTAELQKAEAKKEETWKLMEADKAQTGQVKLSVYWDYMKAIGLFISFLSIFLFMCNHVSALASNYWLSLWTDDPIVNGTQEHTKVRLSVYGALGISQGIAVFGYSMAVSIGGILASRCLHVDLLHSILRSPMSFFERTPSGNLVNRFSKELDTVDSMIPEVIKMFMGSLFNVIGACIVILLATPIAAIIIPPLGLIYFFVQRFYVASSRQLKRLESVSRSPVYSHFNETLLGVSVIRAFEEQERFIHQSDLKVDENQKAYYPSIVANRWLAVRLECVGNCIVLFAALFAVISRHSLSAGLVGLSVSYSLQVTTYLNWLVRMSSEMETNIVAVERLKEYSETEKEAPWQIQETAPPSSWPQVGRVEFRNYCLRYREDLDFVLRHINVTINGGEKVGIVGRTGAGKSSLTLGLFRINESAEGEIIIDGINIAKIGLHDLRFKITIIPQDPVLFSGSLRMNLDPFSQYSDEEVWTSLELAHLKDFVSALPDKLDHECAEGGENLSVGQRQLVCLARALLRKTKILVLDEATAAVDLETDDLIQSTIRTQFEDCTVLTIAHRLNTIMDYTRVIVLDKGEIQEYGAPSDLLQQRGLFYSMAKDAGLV

Structure (SMILES)	EC50 [1]	IC50 [2]
COc1cc(C(=O)NC[C@@H]2CCC[C@H](n3c(=O)c4c(C)onc4c4c(Cl)cccc43)C2)cc(OC)c1OC (racemic)	250 nM	270 nM
Cc1onc2c1c(=O)n([C@H]1CCC[C@@H](CNC(=O)c3ccccc3)C1)c1cccc(Cl)c21 (racemic)	180 nM	38 nM
Cc1onc2c1c(=O)n([C@H]1CCC[C@H](CNC(=O)c3ccccc3)C1)c1cccc(Cl)c21 (racemic)	640 nM	1010 nM
COc1cc(C(=O)NC[C@H]2CCC[C@H](n3c(=O)c4c(C)onc4c4c(Cl)cccc43)C2)cc(OC)c1OC (racemic)	420 nM	–

— ChEMBL document CHEMBL1141238, “Cyclohexyl-linked tricyclic isoxazoles are potent and selective modulators of the multidrug resistance protein (MRP1)” (Bioorg Med Chem Lett, 2005)
